According to patent publication US20210015793A1, “COMPOUNDS FOR TREATING CNS- AND NEURODEGENERATIVE DISEASES” (ETH ZURICH, priority 2018, published 2021):

How the values were obtained:
[1] = test system: Tg2576 AD mice; test: SDS-insoluble hippocampal Abeta1-40 and Abeta1-42 by sandwich ELISA in Tg2576 mice; format: in vivo, mouse; settings: 18 months-old Tg2576 mice, 6 months of treatment, 8 mg/kg/d in drinking water
Description: (§1) For quantitative analysis of SDS-insoluble hippocampal contents of Abeta1-40 and Abeta1-42, hippocampi were dissected out from brains isolated on ice from 18-month-old Tg2576 mice without and with treatment for 6 months with Compound-1 and Compound-4. Isolated hippocampi were pulverized under liquid nitrogen, and SDS-insoluble Abeta peptides were extracted by serial extraction in 14 microL/mg wet weight of Tris buffer (50 mM Tris, 200 nM NaCl, 2 mM EDTA, pH 7.2, supplemented with 1× protease inhibitors/1× phosphatase inhibitors), followed by extraction with Triton X-100-containing buffer (Tris extraction buffer with 0.1% Triton X-100), and followed by extraction with 2% SDS. The remaining pellet was extracted with formic acid (70% formic acid in Tris buffer supplemented with 1× protease inhibitors/1× phosphatase inhibitors). The resulting formic-acid extract was neutralized with 1 M Tris buffer, pH 11, and used for quantitative determination of Abeta1-40 and Abeta1-42 by sandwich ELISA relative to a standard curve according to the protocol of the manufacturer (KHB3481 and KHB3441, Thermo Fisher Scientific, Waltham, Mass., USA).
as §1, with “mM” for “nM”, “and with” for “relative to”

[2] = test system: rats subjected to the CUMS protocol; test: Sucrose preference test (anhedonia) in rats subjected to CUMS; format: in vivo, rat; settings: treated during CUMS
Description: The following stimuli were administered each week in a random order: two periods (7 h and 17 h) of 45° cage tilt; soaked cage for 17 h; food deprivation (24 h) and water deprivation (12 h), twice a week; paired housing (17 h); overnight illumination during the dark phase, twice a week; noise (85 dB) in the room for 5 h, twice a week; flashing light (60 flashes/min) for 6 h, three times a week (AbdAlla et al., Biomed. Res. Int. 2015:917156 (2015); El-faramawy et al., Pharmacol. Biochem. Behav. 91, 339-344 (2009)). The sucrose preference test (2% sucrose in water) was done immediately after a period of food and water deprivation.
Symptoms of depression and anhedonia induced by the CUMS protocol as a typical model of depression were determined by the sucrose preference test. For the sucrose preference test, rats (or mice) were trained to consume a sucrose solution (2%), which was put in the cage with a bottle of water. The sucrose consumption was determined at baseline for two weeks before the CUMS protocol (1 test per week, for 1 h, at 9-10 a.m.), and after 4 weeks of CUMS immediately after a period of food (24 h) and water (12 h) deprivation. The ratio of the sucrose-to-water consumption was determined. […] Similarly, the treatment effect of illustrative compounds on prevention of symptoms of depression was assessed by the sucrose preference test. […]

O=C(C1=C(O)C(c2ccc(F)cc2)N(c2ccc3c(c2)OCO3)C1=O)C1CC1 (stereo not drawn) [Compound-1F, 1-(1,3-Benzodioxol-5-yl)-4-(cyclopropanecarbonyl)-2-(4-fluorophenyl)-3-hydroxy-2H-pyrrol-5-one]
hippocampal content of Abeta1-40 [1]: significantly decreased
hippocampal content of Abeta1-42 [1]: significantly decreased

O=C(C1=C(O)C(c2ccccc2)N(c2ccc3c(c2)OCO3)C1=O)C1CC1 (stereo not drawn) [Compound-1, 1-(1,3-benzodioxol-5-yl)-4-(cyclopropane-carbonyl)-3-hydroxy-2-phenyl-2H-pyrrol-5-one]
hippocampal content of Abeta1-40 [1]: significantly decreased
hippocampal content of Abeta1-42 [1]: significantly decreased
sucrose consumption in sucrose preference test ([2]; 16-month-old rats, 4 weeks CUMS, vs non-stressed control group): not significantly different from the non-stressed control group
CUMS-induced anhedonia in sucrose preference test ([2]; young rats (aged 4 months)): prevented the development of CUMS-induced anhedonia and symptoms of depression
